The results in this text go back to article PMC4355294, “The Ingenious Structure of Central Rotor Apparatus in VoV1; Key for Both Complex Disassembly and Energy Coupling between V1 and Vo” (PLoS ONE, 2015).

The test system of one experiment is T1, V1-H.s-DF.
T1 construct: gene atpA
Briefly: enzyme-coupled ATP regenerating ATPase assay, Michaelis-Menten fit. Type of experiment: biochemical, Thermus thermophilus. Particulars: 25°C; isolated V1. The source says: enzyme-coupled ATP regenerating ATPase assay, Michaelis-Menten fit on V1-H.s-DF

Another experiment concerns T2, V1-E.h-DF.
T2 construct: gene atpA
Described as above. The settings on record: 25°C; isolated V1. Type of experiment: biochemical, Thermus thermophilus. From the text: enzyme-coupled ATP regenerating ATPase assay, Michaelis-Menten fit on V1-E.h-DF

As for `Nc1ncnc2c1ncn2[C@@H]1O[C@H](COP(=O)(O)OP(=O)(O)OP(=O)(O)O)[C@@H](O)[C@H]1O` [ATP], the Michaelis constant (Km) (in general, the concentration of substrate that gives half-maximal velocity) in the experiment with V1-H.s-DF was 480 ± 40 µM; in the experiment on V1-E.h-DF, 760 ± 40 µM.
